Measurements as given in ChEMBL document CHEMBL5154929, “Optimization of the Natural Product Calothrixin A to Discover Novel Dual Topoisomerase I and II Inhibitors with Improved Anticancer Activity” (J Med Chem, 2022).
Calls of active or inactive are those of the source. The calls are words filed in the database; no cut-off is given here.

Columns and labels:
[1] = Cytotoxicity against human HEK293T cells measured after 72 hrs by MTT assay; assay type: toxicity, cell-based, HEK-293T
MCF7 = experiment: Cytotoxicity against human MCF7 cells expressing high level of topoisomerase I/II measured after 72 hrs by MTT assay; assay type: functional, cell-based; settings: MCF7, 72 h
HCT-116 [2] = experiment: Cytotoxicity against human HCT-116 cells expressing high level of topoisomerase I/II measured after 72 hrs by MTT assay; assay type: functional, cell-based; settings: HCT-116, 72 h
A-375 [3] = experiment: Cytotoxicity against human A-375 cells expressing high level of topoisomerase I/II measured after 72 hrs by MTT assay; assay type: functional, cell-based; settings: A-375, 72 h
A549 = experiment: Cytotoxicity against human A549 cells expressing high level of topoisomerase I/II measured after 72 hrs by MTT assay; assay type: functional, cell-based; settings: A549, 72 h
[4] = biological target: T1, DNA topoisomerase 1 (Homo sapiens) (UniProt P11387); experiment: Inhibition of DNA topoisomerase I (unknown origin) relaxation activity at 100 uM incubated for 30 mins by chemiDoc system
T1 sequence (whole entry): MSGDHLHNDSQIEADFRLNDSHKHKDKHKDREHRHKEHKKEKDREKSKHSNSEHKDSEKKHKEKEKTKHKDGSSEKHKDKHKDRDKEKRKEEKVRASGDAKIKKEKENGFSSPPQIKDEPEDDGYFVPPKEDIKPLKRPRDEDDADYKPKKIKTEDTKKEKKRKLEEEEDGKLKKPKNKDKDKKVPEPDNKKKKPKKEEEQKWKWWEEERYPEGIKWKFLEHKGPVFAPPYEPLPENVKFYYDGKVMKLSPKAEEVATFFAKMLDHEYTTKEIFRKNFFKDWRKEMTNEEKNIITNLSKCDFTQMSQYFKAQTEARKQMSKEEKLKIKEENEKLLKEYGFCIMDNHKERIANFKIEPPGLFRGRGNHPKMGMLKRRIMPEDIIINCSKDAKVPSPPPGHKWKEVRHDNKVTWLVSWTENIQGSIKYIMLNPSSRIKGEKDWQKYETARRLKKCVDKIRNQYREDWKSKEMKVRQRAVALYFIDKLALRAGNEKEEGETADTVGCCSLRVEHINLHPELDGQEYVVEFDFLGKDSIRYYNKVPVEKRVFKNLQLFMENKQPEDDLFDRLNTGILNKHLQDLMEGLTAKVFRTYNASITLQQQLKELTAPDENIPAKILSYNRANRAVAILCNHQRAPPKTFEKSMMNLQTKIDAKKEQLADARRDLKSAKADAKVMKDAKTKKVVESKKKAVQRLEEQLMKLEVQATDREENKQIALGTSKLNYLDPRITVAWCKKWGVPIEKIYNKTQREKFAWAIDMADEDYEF

[5] = Cytotoxicity against human L02 cells measured after 72 hrs by MTT assay; assay type: toxicity, cell-based
SH-SY5Y = experiment: Cytotoxicity against human SH-SY5Y cells expressing low level of topoisomerase I/II measured after 72 hrs by MTT assay; assay type: functional, cell-based
MDA-MB-231 = experiment: Cytotoxicity against human MDA-MB-231 cells expressing high level of topoisomerase I/II measured after 72 hrs by MTT assay; assay type: functional, cell-based; settings: MDA-MB-231, 72 h
HCT-116 [6] = experiment: Antiproliferative activity against doxorubicin resistant human HCT-116 cells measured after 72 hrs by MTT assay; assay type: functional, cell-based; settings: HCT-116, 72 h
HCT-116 [7] = experiment: Antiproliferative activity against doxorubicin sensitive human HCT-116 cells measured after 72 hrs by MTT assay; assay type: functional, cell-based; settings: HCT-116, 72 h
A-375 [8] = experiment: Induction of cell cycle arrest in human A-375 cells assessed as accumulation of cells at G2 phase at 80 nM incubated for 24 hrs by PI based flow cytometric analysis (RVB = 20.34%); assay type: functional
A-375 [9] = experiment: Induction of cell cycle arrest in human A-375 cells assessed as accumulation of cells at G1 phase at 80 nM incubated for 24 hrs by PI based flow cytometric analysis (RVB = 52.94%); assay type: functional
A-375 [10] = experiment: Induction of cell cycle arrest in human A-375 cells assessed as accumulation of cells at S phase at 80 nM incubated for 24 hrs by PI based flow cytometric analysis (RVB = 26.73%); assay type: functional
[11] = Aqueous solubility of the compound in saline equilibrating for 24 hrs by HPLC analysis; assay type: physicochemical

Row | Compound | IC50 at 72 h [1] [µM] | IC50 (MCF7) [µM] | IC50 (HCT-116 [2]) [µM] | IC50 (A-375 [3]) [µM] | IC50 (A549) [µM] | inhibition [4] | IC50 at 72 h [5] [µM] | IC50 (SH-SY5Y) [µM] | IC50 (MDA-MB-231) [µM] | IC50 (HCT-116 [6]) [µM] | IC50 (HCT-116 [7]) [µM] | Activity (A-375 [8]) [%] | Activity (A-375 [9]) [%] | Activity (A-375 [10]) [%] | solubility at 24 h [11] [mg/mL]
1 | O=C1c2c[n+]([O-])c3ccccc3c2C(=O)c2c1c1ccccc1n2CCCCN1CCNCC1 | 0.76 | 12 | 0.7 | 0.46 | 0.54 | Active | 1.38 | 1.24 | 3.31 | – | – | – | – | – | –
2 | CN(C)CCCCn1c2c(c3ccccc31)C(=O)c1c[n+]([O-])c3ccccc3c1C2=O | 0.52 | 0.22 | 0.45 | 0.47 | 0.31 | Active | 0.3 | 0.25 | 0.35 | – | – | – | – | – | –
3 | COc1cccc2c1C(=O)c1c(O)c3c(c(O)c1C2=O)C[C@@](O)(C(=O)CO)C[C@@H]3O[C@H]1C[C@H](N)[C@H](O)[C@H](C)O1 [DOXORUBICIN] | – | – | 0.34 | 0.26 | – | – | – | 0.8 | 0.81 | 2.05 | 0.29 | – | – | – | –
4 | O=C1c2c[n+]([O-])c3ccccc3c2C(=O)c2[nH]c3ccccc3c21 [CALOTHRIXIN A] | 0.89 | 0.54 | 0.62 | 0.66 | 0.32 | Active | 0.4 | 1.38 | 0.48 | 0.81 | 0.65 | 10.46 | 56.28 | 33.26 | < 0.005
5 | CN1CCN(CCCCCn2c3c(c4ccccc42)C(=O)c2c[n+]([O-])c4ccccc4c2C3=O)CC1 | – | 1.26 | 1.22 | 1.71 | 0.87 | Active | 1.64 | 0.83 | 2.27 | – | – | – | – | – | –
6 | O=C1c2c[n+]([O-])c3ccccc3c2C(=O)c2c1c1ccccc1n2Cc1cn([C@H]2C[C@H](O)[C@@H](CO)O2)nn1 | 3.6 | 0.53 | 0.12 | 0.39 | 0.35 | – | 0.28 | 0.62 | 0.58 | – | – | – | – | – | > 5
7 | CC(=O)OC[C@H]1O[C@@H](n2cc(Cn3c4c(c5ccccc53)C(=O)c3c[n+]([O-])c5ccccc5c3C4=O)nn2)C[C@@H]1OC(C)=O | 2.54 | 0.55 | 0.12 | 0.14 | 1.83 | – | 0.35 | > 0.5 | 0.55 | – | – | – | – | – | –
8 | O=C1c2c[n+]([O-])c3ccccc3c2C(=O)c2c1c1ccccc1n2CCCCn1ccnc1 | 0.28 | 0.13 | 0.24 | 0.35 | 0.17 | – | 0.15 | 0.13 | 0.21 | – | – | – | – | – | –
9 | O=C1c2c[n+]([O-])c3ccccc3c2C(=O)c2c1c1ccccc1n2Cc1cn([C@H]2O[C@H](CO)[C@@H](O)[C@H]2O)nn1 | 1.37 | 1.49 | 0.71 | 0.34 | 2.68 | – | 0.95 | 1.34 | 1.7 | – | – | – | – | – | –
10 | CN1CCN(CCCCCCn2c3c(c4ccccc42)C(=O)c2c[n+]([O-])c4ccccc4c2C3=O)CC1 | 5.8 | 0.4 | 2.9 | 0.63 | 0.33 | – | 3.8 | 0.92 | 2.4 | – | – | – | – | – | –
11 | O=C1c2c[n+]([O-])c3ccccc3c2C(=O)c2c1c1ccccc1n2CCCCCN1CCOCC1 | 0.15 | 0.26 | 0.3 | 0.23 | 0.13 | – | 0.33 | 0.3 | 0.33 | – | – | – | – | – | –
12 | CC(=O)OC[C@H]1O[C@@H](n2cc(Cn3c4c(c5ccccc53)C(=O)c3c[n+]([O-])c5ccccc5c3C4=O)nn2)[C@H](OC(C)=O)[C@@H]1OC(C)=O | 0.9 | 0.46 | 0.65 | 0.15 | 1.16 | – | 0.27 | 1.9 | 0.6 | – | – | – | – | – | –
13 | O=C1c2c[n+]([O-])c3ccccc3c2C(=O)c2c1c1ccccc1n2Cc1cn([C@@H]2O[C@H](CO)[C@@H](O)[C@H](O)[C@H]2O)nn1 | 0.94 | 0.59 | 0.13 | 0.23 | 0.56 | – | 0.42 | 0.88 | 0.65 | – | – | – | – | – | –
14 | CC(=O)OC[C@H]1O[C@H](n2cc(Cn3c4c(c5ccccc53)C(=O)c3c[n+]([O-])c5ccccc5c3C4=O)nn2)[C@H](OC(C)=O)[C@@H]1OC(C)=O | 0.21 | 0.67 | 0.15 | 0.69 | 0.43 | – | 0.09 | 0.51 | 0.25 | – | – | – | – | – | –
15 | O=C1c2c[n+]([O-])c3ccccc3c2C(=O)c2c1c1ccccc1n2Cc1cn(C[C@H](O)CO)nn1 | 8.88 | > 1 | 0.4 | 0.35 | 1.03 | – | 1.13 | > 1 | 1.31 | – | – | – | – | – | –
16 | CC(=O)OC[C@H]1O[C@H](n2cc(Cn3c4c(c5ccccc53)C(=O)c3c[n+]([O-])c5ccccc5c3C4=O)nn2)C[C@@H]1OC(C)=O | 0.12 | 1.28 | 0.38 | 0.55 | 1.14 | – | 2.78 | > 1 | 1.19 | – | – | – | – | – | –
